Here are results for 12 molecules from patent publication US10457707B2, “Substituted urea depsipeptide analogs as activators of the CLPP endopeptidase” (priority 2015, dated 2019).

≈ marks a conversion by molar mass, not a printed value. *1 amine or outer side, *2 acyl side, *3 side chain or, on linkers, in order; H or OH if unused. Where a SMILES comes first, the peptide text is derived from it. Bridges are numbered along the chain shown (N, C = ends). [ ]: non-standard residue; d: D form. The star is where a group is joined. ξ: configuration not given here. Phe(3,5-F2) = N[C@@H](Cc1cc(F)cc(F)c1)C(=O)O; NH(1-Me-indolin-5-yl) = CN1CCc2cc(N*)ccc21; Morpholine(3S-CO) = O=C(O)[C@@H]1COCCN1; Pro(4S-Me) = C[C@@H]1CN[C@H](C(=O)O)C1; NH(4-Cl-2-F-phenyl) = Fc1cc(Cl)ccc1N*; Pro(4R-Me) = C[C@H]1CN[C@H](C(=O)O)C1; NH(3,4-Me2-phenyl) = Cc1ccc(N*)cc1C; Hyp = O=C(O)[C@@H]1C[C@@H](O)CN1; NMeT = CN[C@H](C(=O)O)[C@@H](C)O; Heptenoyl(2E) = CCCC/C=C/C(=O)*; NH(4-Me-phenyl) = Cc1ccc(N*)cc1; ξNMeThr = CNC(C(=O)O)[C@@H](C)O; aThr = C[C@H](O)[C@H](N)C(=O)O; Pip = O=C(O)[C@@H]1CCCCN1; NMeA = CN[C@@H](C)C(=O)O; X4 = c1cc2c(cc1N*)CCC2; X8 = c1cc2c(cc1N*)CCO2; X6 = Cc1cc(C)cc(N*)c1; CO = O=C([*:1])[*:2]; X7 = CC/C=C/C(=O)*

Experiment [1] deals with Staphylococcus aureus, USA 300. The experiment can be described thus: Minimal inhibitory concentration assay. It is filed as cell-based. The note with it: USA300, read-out: Minimal Inhibitory Concentrations S. aureus USA 300. The method in brief:
(§1)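 Antibacterial activity was measured by CLSI-standard microdilution in broth, using overnight aerobic incubation at 37 °C. Growth inhibition was scored visually, and MIC taken as the lowest concentration preventing growth.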

The subject of experiment [2] is Staphylococcus aureus, USA 300 wherein ClpP is inactivated. The experiment in a line: Minimal inhibitory concentration assay. It is filed as cell-based. The method in brief: as §1

Turning to `Cc1ccc(NC(=O)N[C@@H](Cc2cc(F)cc(F)c2)C(=O)N[C@@H]2C(=O)N3C[C@H](O)C[C@H]3C(=O)N3CCCC[C@H]3C(=O)N[C@@H](C)C(=O)N3C[C@H](C)C[C@H]3C(=O)O[C@H]2C)cc1C` [Compound 212, (S)-3-(3,5-difluorophenyl)-2-(3-(3,4-dimethylphenyl)ureido)-N-((2R,6S,8aS,14aS,16R,20S,21S,23aS)-16-hydroxy-2,6,21-trimethyl-5,8,14,19,23-pentaoxooctadecahydro-1H,5H,14H,19H-pyrido[2,1-i]dipyrrolo[2,1-c:2′,1′-l][1]oxa[4,7,10,13]tetraazacyclohexadecin-20-yl)propanamide] ({NH(3,4-Me2-phenyl)-CO}-[Phe(3,5-F2)][aThr][Hyp][Pip]A[Pro(4R-Me)]; ester 2-C), the MIC in experiment [1] worked out at 0.1 µM (≈ 0.0838 µg/mL). Besides, the “Minimal Inhibitory Concentrations S. aureus USA 300 ΔClpP” value in experiment [2] is more than 200 µM.
For the molecule `Cc1ccc(NC(=O)N[C@@H](Cc2cc(F)cc(F)c2)C(=O)N[C@@H]2C(=O)N3C[C@H](O)C[C@H]3C(=O)N(C)[C@@H](C)C(=O)N[C@@H](C)C(=O)N3C[C@@H](C)C[C@H]3C(=O)O[C@H]2C)cc1` [Compound 214, (S)-3-(3,5-difluorophenyl)-N-((2S,6S,9S,11aS,13R,17S,18S,20aS)-13-hydroxy-2,6,9,10,18-pentamethyl-5,8,11,16,20-pentaoxohexadecahydro-1H,5H,16H-dipyrrolo[2,1-c:2′,1′-l][1]oxa[4,7,10,13]tetraazacyclohexadecin-17-yl)-2-(3-(p-tolyl)ureido)propanamide] ({NH(4-Me-phenyl)-CO}-[Phe(3,5-F2)][aThr][Hyp][NMeA]A[Pro(4S-Me)]; ester 2-C), the MIC in experiment [1] turned out to be 1.56 µM (≈ 1.24 µg/mL). Besides, the “Minimal Inhibitory Concentrations S. aureus USA 300 ΔClpP” value in experiment [2] was more than 200 µM.
The matching figures for `CC/C=C/C(=O)N[C@@H](Cc1cc(F)cc(F)c1)C(=O)N[C@@H]1C(=O)N2C[C@H](O)C[C@H]2C(=O)N2CCCC[C@H]2C(=O)N[C@@H](C)C(=O)N2C[C@H](C)C[C@H]2C(=O)O[C@H]1C` [Compound 300] (X7-[Phe(3,5-F2)][aThr][Hyp][Pip]A[Pro(4R-Me)]; ester 2-C): 2.5 µM (≈ 1.93 µg/mL) and more than 20 µM.
The like results for `CCCC/C=C/C(=O)N[C@@H](Cc1cc(F)cc(F)c1)C(=O)N[C@@H]1C(=O)N2C[C@H](O)C[C@H]2C(=O)N2CCCC[C@H]2C(=O)N[C@@H](C)C(=O)N2C[C@H](C)C[C@H]2C(=O)O[C@H]1C` [Compound 301, (E)-N—((S)-3-(3,5-difluorophenyl)-1-(((2R,6S,8aS,14aS,16R,20S,21S,23aS)-16-hydroxy-2,6,21-trimethyl-5,8,14,19,23-pentaoxooctadecahydro-1H,5H,14H,19H-pyrido[2,1-i]dipyrrolo[2,1-c:2′,1′-l][1]oxa[4,7,10,13]tetraazacyclohexadecin-20-yl)amino)-1-oxopropan-2-yl)hept-2-enamide] ({Heptenoyl(2E)}-[Phe(3,5-F2)][aThr][Hyp][Pip]A[Pro(4R-Me)]; ester 2-C) were, in that order, 0.079 µM (≈ 0.0633 µg/mL) and more than 20 µM.
The like results for `C[C@@H]1C[C@H]2C(=O)O[C@@H](C)[C@H](NC(=O)[C@H](Cc3cc(F)cc(F)c3)NC(=O)Nc3ccc4c(c3)CCC4)C(=O)N3CCC[C@H]3C(=O)N3CCCC[C@H]3C(=O)N[C@@H](C)C(=O)N2C1` [Compound 302, (S)-3-(3,5-difluorophenyl)-2-(3-(2,3-dihydro-1H-INDEN-5-yl)ureido)-N-((2R,6S,8aS,14aS,20S,21S,23aS)-2,6,21-trimethyl-5,8,14,19,23-pentaoxooctadecahydro-1H,5H,14H,19H-pyrido[2,1-i]dipyrrolo[2,1-c:2′,1′-l][1]oxa[4,7,10,13]tetraazacyclohexadecin-20-yl)propanamide] ({X4-CO}-[Phe(3,5-F2)][aThr]P[Pip]A[Pro(4R-Me)]; ester 2-C) were, in that order, 0.059 µM (≈ 0.0492 µg/mL) and more than 20 µM.
For the molecule `Cc1cc(C)cc(NC(=O)N[C@@H](Cc2cc(F)cc(F)c2)C(=O)N[C@@H]2C(=O)N3CCC[C@H]3C(=O)N3CCCC[C@H]3C(=O)N[C@@H](C)C(=O)N3C[C@H](C)C[C@H]3C(=O)O[C@H]2C)c1` [Compound 304, (S)-3-(3,5-difluorophenyl)-2-(3-(3,5-dimethylphenyl)ureido)-N-((2R,6S,8aS,14aS,20S,21S,23aS)-2,6,21-trimethyl-5,8,14,19,23-pentaoxooctadecahydro-1H,5H,14H,19H-pyrido[2,1-i]dipyrrolo[2,1-c:2′,1′-l][1]oxa[4,7,10,13]tetraazacyclo-hexadecin-20-yl)propanamide] ({X6-CO}-[Phe(3,5-F2)][aThr]P[Pip]A[Pro(4R-Me)]; ester 2-C), the MIC in experiment [1] is 0.079 µM (≈ 0.0649 µg/mL). Further, the “Minimal Inhibitory Concentrations S. aureus USA 300 ΔClpP” value in experiment [2] was more than 20 µM.
Regarding `C[C@@H]1C[C@H]2C(=O)O[C@@H](C)[C@H](NC(=O)[C@H](Cc3cc(F)cc(F)c3)NC(=O)Nc3ccc4c(c3)CCO4)C(=O)N3CCC[C@H]3C(=O)N3CCCC[C@H]3C(=O)N[C@@H](C)C(=O)N2C1` [Compound 305, (S)-3-(3,5-difluorophenyl)-2-(3-(2,3-dihydrobenzofuran-5-yl)ureido)-N-((2R,6S,8aS,14aS,20S,21S,23aS)-2,6,21-trimethyl-5,8,14,19,23-pentaoxooctadecahydro-1H,5H,14H,19H-pyrido[2,1-i]dipyrrolo[2,1-c:2′,1′-l][1]oxa[4,7,10,13]tetraazacyclo-hexadecin-20-yl)propanamide] ({X8-CO}-[Phe(3,5-F2)][aThr]P[Pip]A[Pro(4R-Me)]; ester 2-C), in experiment [1], the MIC was determined as 0.24 µM (≈ 0.201 µg/mL). The “Minimal Inhibitory Concentrations S. aureus USA 300 ΔClpP” value in experiment [2] is more than 20 µM.
The matching figures for `C[C@@H]1C[C@H]2C(=O)O[C@@H](C)[C@H](NC(=O)[C@H](Cc3cc(F)cc(F)c3)NC(=O)Nc3ccc(Cl)cc3F)C(=O)N3CCC[C@H]3C(=O)N3CCCC[C@H]3C(=O)N[C@@H](C)C(=O)N2C1` [Compound 307, (S)-2-(3-(4-chloro-2-fluorophenyl)ureido)-3-(3,5-difluorophenyl)-N-((2R,6S,8aS,14aS,20S,21S,23aS)-2,6,21-trimethyl-5,8,14,19,23-pentaoxooctadecahydro-1H,5H,14H,19H-pyrido[2,1-i]dipyrrolo[2,1-c:2′,1′-l][1]oxa[4,7,10,13]tetraazacyclo-hexadecin-20-yl)propanamide] ({NH(4-Cl-2-F-phenyl)-CO}-[Phe(3,5-F2)][aThr]P[Pip]A[Pro(4R-Me)]; ester 2-C): less than 0.02 µM and more than 20 µM.
`CCCC/C=C/C(=O)N[C@@H](Cc1cc(F)cc(F)c1)C(=O)N[C@@H]1C(=O)N2CCC[C@H]2C(=O)N(C)[C@@H]([C@@H](C)O)C(=O)N[C@@H](C)C(=O)N2C[C@H](C)C[C@H]2C(=O)O[C@H]1C` [Compound 308, (E)-N—((S)-3-(3,5-difluorophenyl)-1-(((2R,6S,9S,11aS,17S,18S,20aS)-9-((R)-1-hydroxyethyl)-2,6,10,18-tetramethyl-5,8,11,16,20-pentaoxohexadecahydro-1H,5H,16H-dipyrrolo[2,1-c:2′,1′-l][1]oxa[4,7,10,13]tetraazacyclohexadecin-17-yl)amino)-1-oxopropan-2-yl)hept-2-enamide] ({Heptenoyl(2E)}-[Phe(3,5-F2)][aThr]P[NMeT]A[Pro(4R-Me)]; ester 2-C): the MIC in experiment [1] was found to be 0.039 µM (≈ 0.0308 µg/mL). For the same molecule, the “Minimal Inhibitory Concentrations S. aureus USA 300 ΔClpP” value in experiment [2] was more than 20 µM.
The like results for `CCCC/C=C/C(=O)N[C@@H](Cc1cc(F)cc(F)c1)C(=O)N[C@@H]1C(=O)N2C[C@H](O)C[C@H]2C(=O)N2CCOC[C@H]2C(=O)N[C@@H](C)C(=O)N2C[C@H](C)C[C@H]2C(=O)O[C@H]1C` [Compound 309, (E)-N—((S)-3-(3,5-difluorophenyl)-1-(((6aS,8R,12S,13S,15aS,17R,21S,23aS)-8-hydroxy-13,17,21-trimethyl-6,11,15,20,23-pentaoxooctadecahydro-6H,11H,15H-[1,4]oxazino[3,4-i]dipyrrolo[2,1-c:2′,1′-l][1]oxa[4,7,10,13]tetraazacyclohexadecin-12-yl)amino)-1-oxopropan-2-yl)hept-2-enamide] ({Heptenoyl(2E)}-[Phe(3,5-F2)][aThr][Hyp][Morpholine(3S-CO)]A[Pro(4R-Me)]; ester 2-C) were, in that order, 0.625 µM (≈ 0.502 µg/mL) and more than 20 µM.
As to `C[C@@H]1C[C@H]2C(=O)O[C@@H](C)[C@H](NC(=O)[C@H](Cc3cc(F)cc(F)c3)NC(=O)Nc3ccc4c(c3)CCN4C)C(=O)N3CCC[C@H]3C(=O)N3CCCC[C@H]3C(=O)N[C@@H](C)C(=O)N2C1` [Compound 310, (S)-3-(3,5-difluorophenyl)-2-(3-(1-methylindolin-5-yl)ureido)-N-((2R,6S,8aS,14aS,20S,21S,23aS)-2,6,21-trimethyl-5,8,14,19,23-pentaoxooctadecahydro-1H,5H,14H,19H-pyrido[2,1-i]dipyrrolo[2,1-c:2′,1′-l][1]oxa[4,7,10,13]tetraazacyclo-hexadecin-20-yl)propanamide] ({NH(1-Me-indolin-5-yl)-CO}-[Phe(3,5-F2)][aThr]P[Pip]A[Pro(4R-Me)]; ester 2-C), the MIC in experiment [1] amounted to 0.078 µM (≈ 0.0662 µg/mL). Further, the “Minimal Inhibitory Concentrations S. aureus USA 300 ΔClpP” value in experiment [2] is more than 20 µM.
The matching figures for `C[C@@H]1C[C@H]2C(=O)O[C@@H](C)[C@H](NC(=O)[C@H](Cc3cc(F)cc(F)c3)NC(=O)Nc3ccc4c(c3)CCN4C)C(=O)N3CCC[C@H]3C(=O)N(C)C([C@@H](C)O)C(=O)N[C@@H](C)C(=O)N2C1` (stereo partly drawn) [Compound 311, (S)-3-(3,5-difluorophenyl)-N-((2R,6S,9R,11aS,17S,18S,20aS)-9-((R)-1-hydroxyethyl)-2,6,10,18-tetramethyl-5,8,11,16,20-pentaoxohexadecahydro-1H,5H,16H-dipyrrolo[2,1-c:2′,1′-l][1]oxa[4,7,10,13]tetraazacyclohexadecin-17-yl)-2-(3-(1-methylindolin-5-yl)ureido)propanamide] ({NH(1-Me-indolin-5-yl)-CO}-[Phe(3,5-F2)][aThr]P[ξNMeThr]A[Pro(4R-Me)]; ester 2-C): 0.156 µM (≈ 0.133 µg/mL) and more than 20 µM.
